# Test results published in US20250236616A1, “IMMUNOMODULATING AZALIDES” (Zoetis Services LLC, priority 2021, published 2025).
# Experiments:
# [1] = test system: P. multocida 46572; assay: In vivo mouse lung infection challenge model (murine efficacy), survival; parameters: species or system CD-1 female mice; details: P. multocida 46572 intranasal challenge; 20 mg/kg subcutaneous; harmonized relative to vehicle (−) and M9 (+) controls
# Protocol: The challenge organism was P. multocida 46572. Target challenge concentration was 5×10^2 CFU/mouse. Isolated colonies from overnight growth (37° C. with 5% CO2) on trypticase soy agar (TSA II) blood plates were transferred to room temperature Brain Heart Infusion Broth (BHIB). The broth culture was incubated 3.5-4 hours to approximately mid-log phase of growth, as measured by forward light scatter at 600 nm (OD600, 0.200). The culture was centrifuged to collect the bacterial pellet. The pellet was re-suspended in BHIB and adjusted to provide an approximate concentration of 2.7 log 10 colony forming units (CFU) in 0.04 mL at the highest concentration. The challenge inoculum concentration was confirmed by serial dilutions of the inoculum for CFU enumeration. On Day −5, CD −1 female mice were received. Mice were given standard rodent diet and water ad libitum. On Day 0, bacterial inoculum (0.04 mL) was administered to each mouse (n=36) intranasally. Compounds of the invention were dosed at 20 mg/kg (0.1 mL) in a buffered (˜pH 5.4) propylene glycol, monothioglycerol and water solution by subcutaneous injection. Animals were observed from Days 1-10. The study was terminated on Day 10. In addition, some treatment groups were sampled at 6, 24, and 48 hours post bacterial challenge for RNA sequence analysis of lung tissue.
# The murine efficacy model (P.multocida challenge) was optimized, and the treatment group size was powered to be able to observe statistically significant improvement of survival to expected ranges for immunomodulatory compounds. The experimental design was a randomized complete block design. Mice were individually identified and treatment groups comingled within a cage, with every treatment group equally represented across cages. Mortality was the primary variable. Mortality data was analyzed using a generalized mixed model with fixed effect of treatment and random effect of block. Survival time was also analyzed using the SAS PHREG (survival analysis) procedure to examine whether there were significant differences between treatment groups and the control group. Numerous compounds of the invention and M9 (positive control) were tested in this model at a dose of 20 mg/kg (Table 3). Typical percent survival for no treatment control is in the range of 0-20% based on study to study variation in challenge inoculum and rate of infection. […] Mouse survival for M9 was about 90-100%, further supporting its residual antibacterial properties against the bacterial strain.
# [2] = test system: IL-6; assay: Whole bovine blood assay, LPS-induced IL-6; format: cell-based; details: Bos taurus, fresh whole bovine blood, LPS stimulant; top drug concentration 250 μM
# [3] = test system: TNF-α; assay: Whole bovine blood assay, LPS-induced TNF-α; format: cell-based; details: Bos taurus, fresh whole bovine blood, LPS stimulant; top drug concentration 250 μM
# Outline: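 Fresh heparinized bovine whole blood was preincubated with compound 4 h at 37 °C, then stimulated with LPS (final 1 μg/mL) for 18 h at 37 °C. Plasma TNF-α was quantified by MSD U-Plex chemiluminescent immunoassay, normalized to total protein (BCA), and IC50 taken for LPS-induced TNF-α inhibition.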
# [4] = test system: IL-1β; assay: Whole bovine blood assay, LPS-induced IL-1β (inhibition / overstimulation); format: cell-based; details: Bos taurus, 18 h, drug concentration giving overstimulation (OS) of LPS-induced IL-1β, top concentration 250 μM
# Outline: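 Fresh heparinized bovine whole blood was preincubated with compound at varying concentrations for 4 h at 37 °C, then stimulated with 1 μg/mL LPS for 18 h. Plasma IL-1β was measured by MSD chemiluminescent immunoassay and normalized to total protein. Values cover inhibition and concentration-dependent overstimulation.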
# [5] = test system: P. multocida; assay: Murine P. multocida intranasal challenge study, treatment 18 hours after challenge, survival; format: in vivo, mice; details: subcutaneous 18 hours after challenge (5×10^3 CFU/mouse); tulathromycin 16 mg/kg, M9 32 mg/kg, ceftiofur 9 mg/kg
# Protocol: In one murine P. multocida intranasal challenge study, mice were administered tulathromycin (16 mg/kg; T02), M9 (32 mg/kg; T03), or ceftiofur (9 mg/kg; T04) by subcutaneous injection 18 hours after bacterial challenge (5×10^3 CFU/mouse) for lung tissue RNA sequence analysis. Survival at Day 7 was about 80%, 50%, and 90% for T02, T03, and T04, respectively, compared to placebo at 0%. Differential gene expression from total lung tissue RNA sequence analysis indicated at least 226 unique genes were up or down regulated (with significance) for T03. Output from ingenuity pathway analysis of these unique genes predicted major upstream regulators of the involved pathways. Data was analyzed based on the number of genes being modulated in the same direction that were associated with a given upstream regulator. An activation z-score of 2 or greater is considered significant and the direction change is indicated by + (activated) or -(inhibited). The top 5 pathways included: IL-9 signaling, glucocorticoid receptor signaling, prolactin signaling, JAK STAT signaling, and IL-17 signaling. The top 6 upstream regulators (activation z-score) included: lipopolysaccharide (−6.725), TNF (−4.669), IFNγ (−5.759), IL-1β (−5.947), STAT1 (−2.787), and poly rl: rC-RNA (−5.289). Even though this study was run in the murine model, the top upstream regulators identified as being modulated by M9 include an almost ubiquitous overlap with the pathways identified in the natural disease study as being key mediators in BRD, and therefore is modulating highly relevant pathways in BRD pathobiology.
# [6] = test system: H. somni; assay: MIC, H. somni strains; format: cell-based; details: for MIC values, range: H. somni strains
# Excerpt: (§1) Primary screening of the compounds of the invention included the evaluation of antibacterial activity of analogs through determination of microbial inhibition concentration (MIC) as per CLSI guidelines. The screening panel included the relevant BRD pathogens: 1) M. haemolytica (e.g., 12726, 46571 and 49023, all AHDRCC; and 33396 (ATCC)); and 2) P. multocida (e.g., 34135 and 46572 (both AHDRCC) and 43137 (ATCC)). In some instances, H. somni (A700025K) pathogens were also included in the screening panel. The AHDRCC strains originated from the Zoetis BRD/SRD surveillance program and refer to the Animal Health Development and Research Culture Collection. In addition, the screen assessed S. aureus (29213 ATCC) as a representative Gram-positive isolate, E.faecalis (19433 ATCC) as a commensal gram-positive gastrointestinal bacterium and E. coli (100, 3110 and 25922 (ATCC)) for the evaluation of efflux potential. The screening panel BRD pathogens were assessed in determining antibacterial activity of the Formula (1) compounds.
# (§2) All relevant BRD pathogens were initially screened at a top concentration of 64 μg/mL of a Formula (1) compound in an eleven-point dilution series. […] If an Example was purified further, the MICs moved […] essentially two dilutions across all strains tested in the screening panel.
# (§3) In-Vitro MIC Model Compounds were analyzed for antibacterial activity against a panel of animal health specific gram-positive and gram-negative clinical strains by diluting compounds in DMSO to an appropriate stock concentration to determine the Minimal Inhibitory Concentration (MIC) via a semi-automated broth micro-dilution method (CLSI reference method) with QC strains and anti-microbial agent(s). Specifically, bacteria were grown overnight on TSA w/5% sheep blood agar plates and diluted in saline buffer to a McFarland Standard 0.5, then further diluted in cation-ion adjusted Mueller Hinton Broth to a final concentration of approximately 5×10^5 CFU/mL. 100 μL of inoculated media was added to 96-well plate(s) with 3 μL of serially diluted compound in each row. Depending on strain (see CLSI reference method), bacteria were incubated 18-22 hours at 35-37° C. in ambient air, with 5% CO2 or anaerobically (up to 48 hours).
# [7] = test system: P. multocida; assay: MIC, P. multocida strains; format: cell-based
# Excerpt: as §1, §2, §3
# [8] = test system: M. haemolytica; assay: MIC, M. haemolytica strains; format: cell-based
# Excerpt: as §1, §2, §3
# [9] = test system: natural bovine respiratory disease (BRD); assay: Natural bovine respiratory disease study, treatment failure; format: in vivo, beef calves; details: Zactran group T04 (dose not given), 14-day observation
# [10] = lung isolates at necropsy, natural BRD study, n=25
# [11] = lung isolates at necropsy, natural BRD study, n=33
# [12] = lung isolates at necropsy, natural BRD study, n=116
smiles,measurement,setting,value
"CCCNC[C@]1(O)[C@H](C)OC(O[C@H]2[C@H](C)[C@@H](O[C@@H]3O[C@H](C)C[C@H](N(C)S(=O)(=O)c4nccn4C)[C@H]3Oc3ccc(F)cc3)[C@](C)(O)C[C@@H](C)CN[C@H](C)[C@@H](O)[C@](C)(O)[C@@H](CC)OC(=O)[C@@H]2C)C[C@@]1(C)OC (stereo partly drawn) [Example B-107, N-[(2S,3R,4S,6R)-2-[[(2R,3S,4R,5R,8R,10R,11R,12S,13S, 14R)-2-ethyl-3,4,10-trihydroxy-13-[(4R,5S,6S)-5-hydroxy-4-methoxy-4,6-dimethyl-5-(propylaminomethyl)oxan-2-yl]oxy-3,5,8, 10, 12, 14-hexamethyl-15-oxo-1-oxa-6-azacyclopentadec-11-yl]oxy]-3-(4-fluorophenoxy)-6-methyloxan-4-yl]-N, 1-dimethylimidazole-2-sulfonamide]",% Survival,[1],82%
same,IC50,[2],9 µM
same,IC50,[3],22 µM
same,minimal effective concentration,[4],2 µM
"CCCNC[C@]1(O)[C@H](C)O[C@@H](O[C@H]2[C@H](C)[C@@H](O[C@@H]3O[C@H](C)C[C@H](N(Cc4ccc(OC)cc4)S(=O)(=O)c4ccccc4)[C@H]3O)[C@](C)(O)C[C@@H](C)CN[C@H](C)[C@@H](O)[C@](C)(O)[C@@H](CC)OC(=O)[C@@H]2C)C[C@@]1(C)OC [Example B-148, N-((2S,3R,4S,6R)-2-(((2R,3S,4R,5R,8R,10R,11R,12S,13S,14R)-2-ethyl-3,4,10-trihydroxy-13-(((2R,4R,5S,6S)-5-hydroxy-4-methoxy-4,6-dimethyl-5-((propylamino)methyl)tetrahydro-2H-pyran-2-yl)oxy)-3,5,8,10, 12, 14-hexamethyl-15-oxo-1-oxa-6-azacyclopentadecan-11-yl)oxy)-3-hydroxy-6-methyltetrahydro-2H-pyran-4-yl)-N-(4-methoxybenzyl)benzenesulfonamide]",% Survival,[1],68%
same,IC50,[2],4 µM
same,IC50,[3],2 µM
same,minimal effective concentration,[4],2 µM
CO/N=C(\C(=O)N[C@@H]1C(=O)N2C(C(=O)O)=C(CSC(=O)c3ccco3)CS[C@H]12)c1csc(N)n1 [ceftiofur],Survival at Day 7,[5],~90%
CCN1CCN(c2cc3c(cc2F)c(=O)c(C(=O)O)cn3C2CC2)CC1 [enrofloxacin],"MIC values, range",[6],<0.06 to 1 µg/mL
CS(=O)(=O)c1ccc([C@@H](O)[C@@H](CF)NC(=O)C(Cl)Cl)cc1 [florfenicol],"MIC values, range",[6],0.12 to 2 µg/mL
"CCCN1C[C@H](C)[C@@H](O)[C@](C)(O)[C@@H](CC)OC(=O)[C@H](C)[C@@H](O[C@H]2C[C@@](C)(OC)[C@@H](O)[C@H](C)O2)[C@H](C)[C@@H](O[C@@H]2O[C@H](C)C[C@H](N(C)C)[C@H]2O)[C@](C)(O)C[C@H]1C [gamithromycin, reference compound]","MIC values, range",[6],0.25 to 8 µg/mL
same,MIC50,[6]; [10],0.25 µg/mL
same,MIC90,[6]; [10],2 µg/mL
same,MIC Range,[6]; [10],0.12 to 2 µg/mL
same,MIC50,[7]; [11],1 µg/mL
same,MIC90,[7]; [11],>64 µg/mL
same,"MIC values, range",[7]; the same P. multocida strains of the panel,1 to 2 µg/mL
same,MIC50,[8]; [12],1 µg/mL
same,MIC90,[8]; [12],>64 µg/mL
same,"MIC values, range",[8]; the same M. haemolytica strains of the panel,0.5 to 1 µg/mL
same,Percent failure,[9],29.8%
